Measured values from patent EP0898962A1, “Transdermal patches and methods for inactivating skin proteases” (Becton, Dickinson and Company, priority 1997, dated 1999).

Assay: Incubation of peptide drugs on human skin
Format: in vitro ADME
Text: Effects of proteases on in vivo or in vitro transdermal delivery has been reported for vasopressin and vasopressin analogues (Morimoto et al., Int. Journal Pharmaceutics 81: 119-125, 1992), des-enkephalon-γ-endorphin (Bodde et al., Biochem. Soc. Trans. 17: 943-945, 1989), leucine enkephalin (Choi at al., 1990), and salmon calcitonin (SCT) (Morimoto et al., J. Pharm. Pharmacol. 44; 216-218, 1992). This was concluded because addition of protease inhibitors appear to enhance delivery as determined by increased biological effect of the peptides. For example, camostat mesilate (a serine protease inhibitor) increased the hypocalcemic effect of iontophoretically-delivered SCT (Morimoto, J. Pharm. Pharmacol. 1992) and the antidiuretic effects of vasopressin delivered iontophoretically in rats (Morimoto, Int. Journal Pharmaceutics, 1992). We have observed that incubation of insulin analogues or SCT on human skin results in degradation, which supports the notion that proteolysis accounts for previously observed losses of these peptide drugs during iontophoretic delivery.

- result of incubation on human skin: degradation
Substance: salmon calcitonin [SCT]
